Results on one molecule are retold here after patent US10688146B2, “Curcuma mangga val et. zipp. extract as a treatment to overcome prostate problems” (PT DEXA MEDICA, priority 2013, dated 2020).

The structures appear in SMILES notation.

One test deals with DHT. In words: DHT quantification with Elisa kit in PC3 cells treated with excessive testosterone. To be noted: PC3 cells with excessive testosterone 8.8 μg/ml, finasteride 2 μg/ml (positive control). It is filed as cell-based, human. As to the method: Total protein was isolated after 24 hours treatment with the extract of Curcuma mangga Val. et Zipp. The isolation was performed using Lysis Buffer and TRIzol method. The result of total protein isolation further was calculated using Lowry method. Protein that was obtained subsequently was used as a sample for Western Blot against 5-alpha-reductase and DHT, and the DHT test using Elisa kit Alpha Diagnostic International. The analytical process of semi-Western Blot was performed in accordance to the general method, which is using specific antibody for 5-alpha-reductase-1 and DHT. The detection of Western Blot was performed using HRP-conjugated (Horseradish Peroxidase) secondary antibody and coloring with luminol.
Quantitative analysis was performed using Elisa kit in accordance to the protocol provided by the manufacturer. PC3 cells that were used in this present invention was treated with excessive testosterone which is 8.8 μg/ml, and was treated with 150 μg/ml Curcuma mangga Val. et Zipp extract and 2 μg/ml finasteride, in separate groups. In this present invention, the finasteride treatment group was a positive control.

For test [1], the system named is male rats (Rattus norvegicus) Wistar strain with induced prostate gland growth. In words: Inhibition of prostate gland growth in castrated, testosterone-induced rats. It is filed as in vivo. The conditions noted are these: finasteride 1 mg/kg. The method, then: Animals that were used in the present invention were male rats (Rattus norvegicus) Wistar strain weighing between 200-250 grams from Indoanilab, Bogor, Indonesia. The animals were bred in special cages, in groups, with a normal light setting, which are 12 hours of light and 12 hours of dark and received food and drinking water ad libitum.
The animals were divided into five groups: sham-operated group (normal group), negative control group that is BPH group without any treatment, positive control group that is treated with finasteride 1 mg/kg of body weight, and treatment group which divided into two groups based on the dose of Curcuma mangga Val. et Zipp. extract that they received, namely 92.37 mg/kg and 184.74 mg/kg of body weight. In all animals the growth of its prostate gland were induced, except for the animals in the sham-operated group.
Those rats were induced with subcutaneous administration of testosterone injection to stimulate the growth of prostate gland at the dose of 10 mg/kg body weight, every day for 7 days. The administration of testosterone injection was performed after the removal of testes (castration) and sham surgery in rats. The castration procedures were performed to avoid bias caused by the differences of testosterone amount produced by each individual rat.

Turning to `CC(C)(C)NC(=O)[C@H]1CC[C@H]2[C@@H]3CC[C@H]4NC(=O)C=C[C@]4(C)[C@H]3CC[C@]12C` [finasteride], the “DHT levels (Elisa kit)” value in the test with DHT is recorded as “reduced levels of DHT”. For the same molecule, the DHT plasma concentration result in test [1] is recorded as “suppression of DHT plasma concentration”.
